The record followed here is ChEMBL document CHEMBL5291721, “A preclinical secondary pharmacology resource illuminates target-adverse drug reaction associations of marketed drugs” (Nat Commun, 2023).

Broadly, the AC50 is the midpoint of the concentration-response curve, whichever way the signal moves. Low readings indicate greater potency, high ones weaker potency.

Experiment [1] concerns the target Sodium-dependent dopamine transporter (Homo sapiens, UniProt Q01959).
Experiment [2] addresses cGMP-inhibited 3',5'-cyclic phosphodiesterase 3A (Homo sapiens, UniProt Q14432). It counts as functional.
Experiment [3] concerns the target Histamine H3 receptor (Homo sapiens, UniProt Q9Y5N1).
Experiment [4] concerns the target Acetylcholinesterase (Homo sapiens, UniProt P22303). It counts as functional.
Experiment [5] deals with Prothrombin (Homo sapiens, UniProt P00734). In kind it is functional.
Experiment [6] has as its target 3',5'-cyclic-AMP phosphodiesterase 4A (Homo sapiens, UniProt P27815). In kind it is functional.
Experiment [7] deals with Prostaglandin G/H synthase 1 (Homo sapiens, UniProt P23219). In kind it is functional.
In experiment [8] the target is T1, Alpha-2A adrenergic receptor (Homo sapiens, UniProt P08913).
T1 sequence (P08913 whole entry): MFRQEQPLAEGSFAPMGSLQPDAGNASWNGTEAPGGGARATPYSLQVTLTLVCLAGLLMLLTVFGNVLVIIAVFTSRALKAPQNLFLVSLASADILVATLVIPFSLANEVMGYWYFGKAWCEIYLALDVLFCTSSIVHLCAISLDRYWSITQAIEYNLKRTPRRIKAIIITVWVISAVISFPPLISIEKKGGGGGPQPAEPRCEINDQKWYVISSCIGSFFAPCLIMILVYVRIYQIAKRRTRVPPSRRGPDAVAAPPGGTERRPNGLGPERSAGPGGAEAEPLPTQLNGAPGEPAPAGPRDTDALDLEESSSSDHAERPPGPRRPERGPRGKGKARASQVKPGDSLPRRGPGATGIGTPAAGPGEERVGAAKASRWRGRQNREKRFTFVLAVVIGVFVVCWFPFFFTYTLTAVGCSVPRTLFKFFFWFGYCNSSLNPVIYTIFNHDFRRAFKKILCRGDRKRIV

Experiment [9] has as its target T2, Thromboxane A2 receptor (Homo sapiens, UniProt P21731).
T2 sequence (P21731 whole entry): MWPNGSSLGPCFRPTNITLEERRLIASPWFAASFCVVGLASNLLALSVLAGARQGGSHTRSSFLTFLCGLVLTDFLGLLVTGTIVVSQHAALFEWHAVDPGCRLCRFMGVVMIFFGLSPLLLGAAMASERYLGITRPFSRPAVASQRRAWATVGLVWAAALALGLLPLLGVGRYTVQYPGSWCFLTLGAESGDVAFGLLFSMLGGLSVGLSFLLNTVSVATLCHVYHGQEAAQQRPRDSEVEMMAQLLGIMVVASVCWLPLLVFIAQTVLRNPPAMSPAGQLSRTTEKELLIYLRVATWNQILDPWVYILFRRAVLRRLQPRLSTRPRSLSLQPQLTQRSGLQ
In kind it is functional, cell-based.

Experiment [10] concerns the target T2, Thromboxane A2 receptor. In kind it is functional, cell-based. The source holds these as a separate data set.
For experiment [11], the target named is 5-hydroxytryptamine receptor 2B (Homo sapiens, UniProt P41595). It counts as functional, cell-based.
Experiment [12] concerns the target T3, 5-hydroxytryptamine receptor 1A (Homo sapiens, UniProt P08908).
T3 sequence (P08908 whole entry): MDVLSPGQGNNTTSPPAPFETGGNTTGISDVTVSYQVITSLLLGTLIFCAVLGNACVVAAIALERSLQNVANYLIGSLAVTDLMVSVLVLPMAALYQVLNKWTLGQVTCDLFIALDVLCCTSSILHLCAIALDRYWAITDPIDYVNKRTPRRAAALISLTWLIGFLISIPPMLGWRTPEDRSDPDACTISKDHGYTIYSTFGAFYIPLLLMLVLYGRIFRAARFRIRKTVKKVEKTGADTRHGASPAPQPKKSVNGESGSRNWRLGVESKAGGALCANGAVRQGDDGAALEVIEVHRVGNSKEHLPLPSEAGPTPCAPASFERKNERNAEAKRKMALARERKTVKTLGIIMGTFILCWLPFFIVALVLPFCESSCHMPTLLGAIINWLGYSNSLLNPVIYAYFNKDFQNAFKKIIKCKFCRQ

For experiment [13], the target named is T4, Muscarinic acetylcholine receptor M2 (Homo sapiens, UniProt P08172).
T4 sequence (P08172 whole entry): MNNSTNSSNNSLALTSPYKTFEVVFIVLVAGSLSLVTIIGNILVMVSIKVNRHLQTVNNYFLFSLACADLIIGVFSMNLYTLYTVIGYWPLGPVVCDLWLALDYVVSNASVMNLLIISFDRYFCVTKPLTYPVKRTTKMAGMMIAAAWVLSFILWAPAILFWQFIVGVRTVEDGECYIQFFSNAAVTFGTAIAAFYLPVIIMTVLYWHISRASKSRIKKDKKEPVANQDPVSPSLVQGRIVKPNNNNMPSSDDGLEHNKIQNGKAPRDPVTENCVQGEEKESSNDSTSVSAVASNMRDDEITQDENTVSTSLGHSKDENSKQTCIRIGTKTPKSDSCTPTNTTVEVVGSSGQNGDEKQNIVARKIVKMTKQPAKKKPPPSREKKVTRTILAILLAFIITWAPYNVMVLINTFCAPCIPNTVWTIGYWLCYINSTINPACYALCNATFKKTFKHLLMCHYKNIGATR

The target of experiment [14] is T5, Amine oxidase [flavin-containing] A (Homo sapiens, UniProt P21397).
T5 sequence (P21397 whole entry): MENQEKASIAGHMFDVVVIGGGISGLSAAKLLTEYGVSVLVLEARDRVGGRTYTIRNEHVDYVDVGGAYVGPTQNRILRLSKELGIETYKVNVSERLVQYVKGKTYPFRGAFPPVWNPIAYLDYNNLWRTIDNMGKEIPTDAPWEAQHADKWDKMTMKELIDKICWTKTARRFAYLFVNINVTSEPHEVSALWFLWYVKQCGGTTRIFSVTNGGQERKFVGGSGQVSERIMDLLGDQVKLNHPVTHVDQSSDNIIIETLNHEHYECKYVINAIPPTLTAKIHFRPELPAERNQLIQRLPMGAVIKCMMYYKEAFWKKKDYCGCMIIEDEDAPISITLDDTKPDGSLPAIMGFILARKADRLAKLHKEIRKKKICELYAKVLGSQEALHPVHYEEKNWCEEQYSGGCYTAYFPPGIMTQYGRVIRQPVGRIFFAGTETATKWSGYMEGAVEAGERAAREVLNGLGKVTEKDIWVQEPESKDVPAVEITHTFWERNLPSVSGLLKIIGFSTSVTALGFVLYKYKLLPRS
In kind it is functional.

In experiment [15] the target is T4, Muscarinic acetylcholine receptor M2. It counts as functional, cell-based.
In experiment [16] the target is Voltage-gated inwardly rectifying potassium channel KCNH2 (Homo sapiens, UniProt Q12809). In kind it is functional.
Also: assay procedure not described here.

Chain of Acetylcholinesterase (P22303 whole entry): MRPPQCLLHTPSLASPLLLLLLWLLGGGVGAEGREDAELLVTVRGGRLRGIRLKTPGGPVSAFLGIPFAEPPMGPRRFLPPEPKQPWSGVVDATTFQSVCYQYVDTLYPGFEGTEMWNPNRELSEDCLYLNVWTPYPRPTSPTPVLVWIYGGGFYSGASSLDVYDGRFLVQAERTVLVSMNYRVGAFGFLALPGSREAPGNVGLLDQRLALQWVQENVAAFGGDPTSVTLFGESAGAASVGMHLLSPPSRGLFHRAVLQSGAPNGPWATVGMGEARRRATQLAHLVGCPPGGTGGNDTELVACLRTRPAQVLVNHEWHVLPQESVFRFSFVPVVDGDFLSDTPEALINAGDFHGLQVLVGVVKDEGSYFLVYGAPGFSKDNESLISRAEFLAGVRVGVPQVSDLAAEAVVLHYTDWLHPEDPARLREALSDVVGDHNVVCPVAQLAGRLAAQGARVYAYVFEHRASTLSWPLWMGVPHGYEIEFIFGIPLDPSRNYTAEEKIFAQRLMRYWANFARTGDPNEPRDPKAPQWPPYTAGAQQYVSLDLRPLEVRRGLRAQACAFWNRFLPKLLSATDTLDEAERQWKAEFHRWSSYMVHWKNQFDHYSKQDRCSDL
Chain of cGMP-inhibited 3',5'-cyclic phosphodiesterase 3A (Q14432 whole entry): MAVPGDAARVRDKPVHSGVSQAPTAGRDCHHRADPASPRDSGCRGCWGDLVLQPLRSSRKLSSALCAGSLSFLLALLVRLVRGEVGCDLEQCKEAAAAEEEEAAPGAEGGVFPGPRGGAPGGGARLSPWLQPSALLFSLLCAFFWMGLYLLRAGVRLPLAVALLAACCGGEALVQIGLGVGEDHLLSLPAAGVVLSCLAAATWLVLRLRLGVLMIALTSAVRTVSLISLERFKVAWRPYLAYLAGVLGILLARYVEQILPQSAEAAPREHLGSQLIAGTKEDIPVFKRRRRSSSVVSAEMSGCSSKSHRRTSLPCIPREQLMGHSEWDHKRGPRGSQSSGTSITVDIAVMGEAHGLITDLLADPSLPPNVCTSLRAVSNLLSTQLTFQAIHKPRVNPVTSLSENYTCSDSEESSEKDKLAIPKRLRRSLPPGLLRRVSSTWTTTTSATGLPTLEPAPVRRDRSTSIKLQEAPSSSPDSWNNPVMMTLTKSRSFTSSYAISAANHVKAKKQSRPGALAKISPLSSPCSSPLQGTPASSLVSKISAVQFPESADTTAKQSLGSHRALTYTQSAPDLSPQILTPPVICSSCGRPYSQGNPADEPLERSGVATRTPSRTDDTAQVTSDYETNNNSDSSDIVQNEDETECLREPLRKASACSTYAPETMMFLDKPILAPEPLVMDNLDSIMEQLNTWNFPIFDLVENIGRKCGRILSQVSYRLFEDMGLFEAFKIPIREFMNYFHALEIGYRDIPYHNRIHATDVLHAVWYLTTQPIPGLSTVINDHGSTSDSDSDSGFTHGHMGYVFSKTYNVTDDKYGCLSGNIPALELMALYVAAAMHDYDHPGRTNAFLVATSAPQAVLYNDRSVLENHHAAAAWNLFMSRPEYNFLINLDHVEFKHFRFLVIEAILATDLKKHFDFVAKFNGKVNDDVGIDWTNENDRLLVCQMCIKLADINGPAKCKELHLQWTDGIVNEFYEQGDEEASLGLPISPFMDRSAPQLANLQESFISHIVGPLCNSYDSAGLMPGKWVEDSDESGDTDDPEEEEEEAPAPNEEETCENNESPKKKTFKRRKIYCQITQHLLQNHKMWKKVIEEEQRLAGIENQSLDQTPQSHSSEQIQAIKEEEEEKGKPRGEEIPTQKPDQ
Chain of Prostaglandin G/H synthase 1 (P23219 whole entry): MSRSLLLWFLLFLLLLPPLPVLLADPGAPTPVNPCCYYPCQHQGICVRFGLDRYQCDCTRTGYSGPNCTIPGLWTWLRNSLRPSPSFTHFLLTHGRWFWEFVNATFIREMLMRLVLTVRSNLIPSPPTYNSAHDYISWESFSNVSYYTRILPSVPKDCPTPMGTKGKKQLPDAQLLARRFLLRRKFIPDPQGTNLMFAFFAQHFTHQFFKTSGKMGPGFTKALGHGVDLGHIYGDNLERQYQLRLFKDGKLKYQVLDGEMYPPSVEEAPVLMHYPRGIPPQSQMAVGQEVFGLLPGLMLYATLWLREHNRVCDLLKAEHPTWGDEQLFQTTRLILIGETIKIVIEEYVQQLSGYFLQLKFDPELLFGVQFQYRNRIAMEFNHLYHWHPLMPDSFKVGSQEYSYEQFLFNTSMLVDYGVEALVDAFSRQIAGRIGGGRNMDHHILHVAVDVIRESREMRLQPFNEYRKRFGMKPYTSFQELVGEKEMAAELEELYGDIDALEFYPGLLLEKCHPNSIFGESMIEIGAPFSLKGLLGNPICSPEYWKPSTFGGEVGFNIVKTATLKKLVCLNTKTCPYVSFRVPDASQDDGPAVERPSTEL
Chain of Histamine H3 receptor (Q9Y5N1 whole entry): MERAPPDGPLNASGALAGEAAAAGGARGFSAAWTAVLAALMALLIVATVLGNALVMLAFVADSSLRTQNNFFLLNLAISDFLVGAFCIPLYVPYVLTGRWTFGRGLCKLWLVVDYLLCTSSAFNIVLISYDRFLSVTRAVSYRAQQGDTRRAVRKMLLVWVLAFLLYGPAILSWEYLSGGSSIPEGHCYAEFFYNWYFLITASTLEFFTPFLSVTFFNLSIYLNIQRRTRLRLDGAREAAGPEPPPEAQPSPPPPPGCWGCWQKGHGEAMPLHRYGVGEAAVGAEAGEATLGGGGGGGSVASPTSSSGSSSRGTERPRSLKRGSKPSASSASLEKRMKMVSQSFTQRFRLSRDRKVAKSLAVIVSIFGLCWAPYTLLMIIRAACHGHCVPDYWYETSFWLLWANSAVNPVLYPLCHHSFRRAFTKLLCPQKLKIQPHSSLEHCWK
Chain of Voltage-gated inwardly rectifying potassium channel KCNH2 (Q12809 whole entry): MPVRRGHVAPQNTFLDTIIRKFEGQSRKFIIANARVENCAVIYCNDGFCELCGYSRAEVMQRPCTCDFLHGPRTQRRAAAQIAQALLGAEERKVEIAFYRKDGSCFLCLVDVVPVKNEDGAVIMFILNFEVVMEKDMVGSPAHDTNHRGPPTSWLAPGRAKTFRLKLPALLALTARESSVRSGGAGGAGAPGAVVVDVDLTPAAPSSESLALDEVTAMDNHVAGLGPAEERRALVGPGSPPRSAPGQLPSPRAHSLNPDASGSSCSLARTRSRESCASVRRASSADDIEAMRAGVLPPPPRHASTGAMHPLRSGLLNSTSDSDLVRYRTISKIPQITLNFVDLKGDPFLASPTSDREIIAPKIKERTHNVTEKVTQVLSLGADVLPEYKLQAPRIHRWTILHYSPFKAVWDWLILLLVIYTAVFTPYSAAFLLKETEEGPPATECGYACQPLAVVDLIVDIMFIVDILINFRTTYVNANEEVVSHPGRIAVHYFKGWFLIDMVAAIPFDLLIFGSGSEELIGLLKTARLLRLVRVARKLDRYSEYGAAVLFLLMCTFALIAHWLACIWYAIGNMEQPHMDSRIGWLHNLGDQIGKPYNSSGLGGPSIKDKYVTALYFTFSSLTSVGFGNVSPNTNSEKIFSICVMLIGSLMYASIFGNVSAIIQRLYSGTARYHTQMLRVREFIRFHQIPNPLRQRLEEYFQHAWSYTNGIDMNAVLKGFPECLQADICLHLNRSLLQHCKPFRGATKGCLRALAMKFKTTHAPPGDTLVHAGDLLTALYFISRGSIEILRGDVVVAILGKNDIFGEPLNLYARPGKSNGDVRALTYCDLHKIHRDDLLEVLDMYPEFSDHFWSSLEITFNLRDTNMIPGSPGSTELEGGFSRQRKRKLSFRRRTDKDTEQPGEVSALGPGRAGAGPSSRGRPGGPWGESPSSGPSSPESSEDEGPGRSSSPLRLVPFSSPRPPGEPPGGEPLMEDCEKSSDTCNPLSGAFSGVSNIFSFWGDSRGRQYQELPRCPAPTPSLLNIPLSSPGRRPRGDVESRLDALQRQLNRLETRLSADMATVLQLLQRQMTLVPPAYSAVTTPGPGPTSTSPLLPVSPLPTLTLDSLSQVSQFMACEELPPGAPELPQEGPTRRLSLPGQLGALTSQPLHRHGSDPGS
Chain of Sodium-dependent dopamine transporter (Q01959 whole entry): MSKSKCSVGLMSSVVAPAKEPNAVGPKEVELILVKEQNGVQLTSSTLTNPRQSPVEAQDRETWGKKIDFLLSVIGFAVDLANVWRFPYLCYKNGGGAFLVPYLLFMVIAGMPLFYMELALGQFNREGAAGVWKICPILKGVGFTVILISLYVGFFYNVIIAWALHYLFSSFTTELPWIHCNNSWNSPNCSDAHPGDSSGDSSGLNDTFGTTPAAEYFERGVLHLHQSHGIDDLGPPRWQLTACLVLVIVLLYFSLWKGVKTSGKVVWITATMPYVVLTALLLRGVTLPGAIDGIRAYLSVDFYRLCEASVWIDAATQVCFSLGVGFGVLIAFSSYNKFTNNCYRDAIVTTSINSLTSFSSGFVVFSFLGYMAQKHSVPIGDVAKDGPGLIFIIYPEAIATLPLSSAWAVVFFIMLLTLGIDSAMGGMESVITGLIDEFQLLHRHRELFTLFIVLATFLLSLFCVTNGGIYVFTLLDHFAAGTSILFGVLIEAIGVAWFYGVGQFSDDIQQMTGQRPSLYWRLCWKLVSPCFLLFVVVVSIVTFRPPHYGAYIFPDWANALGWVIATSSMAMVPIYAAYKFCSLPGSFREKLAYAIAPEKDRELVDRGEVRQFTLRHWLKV
Chain of 5-hydroxytryptamine receptor 2B (P41595 whole entry): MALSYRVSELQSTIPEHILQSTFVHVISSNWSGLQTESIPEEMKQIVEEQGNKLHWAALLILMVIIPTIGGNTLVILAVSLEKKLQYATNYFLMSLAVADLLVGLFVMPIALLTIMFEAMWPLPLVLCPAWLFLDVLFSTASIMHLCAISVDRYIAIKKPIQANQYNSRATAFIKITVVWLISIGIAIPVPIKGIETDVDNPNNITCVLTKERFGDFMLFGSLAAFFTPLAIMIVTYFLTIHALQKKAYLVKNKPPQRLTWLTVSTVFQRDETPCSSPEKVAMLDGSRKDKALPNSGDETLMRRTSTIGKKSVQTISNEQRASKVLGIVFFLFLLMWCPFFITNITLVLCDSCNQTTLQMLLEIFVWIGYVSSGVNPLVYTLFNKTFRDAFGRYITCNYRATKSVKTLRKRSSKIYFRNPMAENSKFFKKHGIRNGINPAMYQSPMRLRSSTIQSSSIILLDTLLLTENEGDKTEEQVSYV

`NC[C@H]1CC[C@H](C(=O)Oc2ccc(CCC(=O)O)cc2)CC1` [CETRAXATE]: the half-maximal activity concentration (AC50) in experiment [1] was over 30 µM; in experiment [2], over 30 µM; in experiment [3] it was over 30 µM; in [4], over 30 µM; in experiment [5] it was 4.35 µM; in experiment [6], over 30 µM. In addition, the AC50 in experiment [7], in [8], in [9], in [10], in [11] and in experiment [12] was over 30 µM each time. Also, the AC50 in [13], in experiment [14], in [15] and in experiment [16] was over 30 µM throughout.

Regarding `C[C@@H]1C[C@H]2[C@@H]3C[C@H](F)C4=CC(=O)C=C[C@]4(C)[C@@]3(F)[C@@H](O)C[C@]2(C)[C@@]1(OC(=O)c1ccco1)C(=O)SCF` [FLUTICASONE FUROATE], the AC50 in experiment [1], in experiment [2], in [3], in experiment [4], in experiment [5] and in [6] was over 30 µM in each case. The AC50 in experiment [7] is 9.89 µM; in experiment [8] it was over 30 µM; in experiment [9], over 30 µM; in [10], over 30 µM; in experiment [11], over 30 µM; in experiment [12], over 30 µM. Further, the AC50 was over 30 µM in experiment [13], over 30 µM in experiment [14], over 10 µM in experiment [15] and over 30 µM in [16].

In the case of `COC(=O)[C@H]1[C@H]2C[C@@H]3c4[nH]c5cc(OC)ccc5c4CCN3C[C@H]2C[C@@H](OC(=O)c2cc(OC)c(OC)c(OC)c2)[C@@H]1OC` [RESERPINE], the AC50 in experiment [1] is 29.3 µM; in [2], over 3 µM; in experiment [3], over 30 µM; in experiment [4] it was over 30 µM; in experiment [5], over 30 µM; in experiment [6] it was over 3 µM. For the same compound, the AC50 in [7], in experiment [8], in experiment [9], in experiment [10], in [11] and in experiment [12] was over 30 µM in each case. Moreover, the AC50 in [13] is over 30 µM; in experiment [14] it was over 30 µM; in [15] it was over 10 µM; in experiment [16], 1.46 µM.

Take `O=S1(=O)CCN(CN2CCS(=O)(=O)NC2)CN1` [TAUROLIDINE]: the AC50 in [1], in experiment [2], in [3], in experiment [4], in experiment [5] and in experiment [6] was over 30 µM in each case. The half-maximal activity concentration (AC50) in [7], in experiment [8], in experiment [9], in experiment [10], in [11] and in experiment [12] was over 30 µM in each case. For the same compound, the half-maximal activity concentration (AC50) in experiment [13], in experiment [14], in [15] and in experiment [16] was over 30 µM throughout.
